# In PubChem BioAssay (NCI):
# Several values for one entry are separate records, joined by “and”; a condition that tells them apart may be missing. Identical values can stand only once.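 A five-concentration, 48-hour dose response in 96-well plates underlies each endpoint, interpolated linearly between surrounding concentrations. Definition used: TGI = concentration required for complete inhibition of growth.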
# System: NCI-H226 lung
# Assay: NCI-60 cell line screen, 48 h
row,Compound,TGI
1,COc1ccc2c(=O)oc3c(OC)cc(CCN(C)C)c4c(=O)oc1c2c34,33.2 µM and 50 µM
2,COc1ccc(/C=C\c2cc(OC)c(OC)c(OC)c2)cc1OCC(=O)O,48.2 µM
3,O=C1C/C(Br)=C\c2ccccc2-c2ccccc21,8.22 µM
4,CCCCCCCCCCCC[N+]12CC[N+](CCN)(CC1)CC2,> 100 µM
5,O=C1C=C(Nc2ccc(Cl)cc2C(=O)c2ccccc2)c2ccccc2C1=O,> 100 µM
6,O=C1C=C(c2c(O)ccc3ccccc23)c2cc(O)ccc2C1=O,44.1 µM
7,Cc1cc(C)nc(NS(=O)(=O)c2ccc(Nc3c4ccccc4nc4c(C(=O)N5CCN(CCO)CC5)cccc34)cc2)n1,> 100 µM
8,COc1ccc(NC(=O)CSc2nnc(-c3ccc(NC(C)=O)cc3)o2)cc1,57.8 µM
9,CC12c3ccccc3C(OC=O)(c3ccccc31)C1(C)c3ccccc3C2(OC=O)c2ccccc21,> 100 µM

# System: SNB-78 CNS
# Assay: NCI-60 cell line screen, 48 h
row,Compound,TGI
1,COc1ccc2c(=O)oc3c(OC)cc(CCN(C)C)c4c(=O)oc1c2c34,35.9 µM
2,COc1ccc(/C=C\c2cc(OC)c(OC)c(OC)c2)cc1OCC(=O)O,> 100 µM
3,O=C1C/C(Br)=C\c2ccccc2-c2ccccc21,16.9 µM
4,CCCCCCCCCCCC[N+]12CC[N+](CCN)(CC1)CC2,> 100 µM
5,O=C1C=C(Nc2ccc(Cl)cc2C(=O)c2ccccc2)c2ccccc2C1=O,> 100 µM
6,O=C1C=C(c2c(O)ccc3ccccc23)c2cc(O)ccc2C1=O,42.5 µM
7,Cc1cc(C)nc(NS(=O)(=O)c2ccc(Nc3c4ccccc4nc4c(C(=O)N5CCN(CCO)CC5)cccc34)cc2)n1,> 100 µM
8,COc1ccc(NC(=O)CSc2nnc(-c3ccc(NC(C)=O)cc3)o2)cc1,44 µM
9,CC12c3ccccc3C(OC=O)(c3ccccc31)C1(C)c3ccccc3C2(OC=O)c2ccccc21,> 100 µM

# System: T-47D breast
# Assay: NCI-60 cell line screen, 48 h
row,Compound,TGI
1,COc1ccc2c(=O)oc3c(OC)cc(CCN(C)C)c4c(=O)oc1c2c34,18 µM
2,COc1ccc(/C=C\c2cc(OC)c(OC)c(OC)c2)cc1OCC(=O)O,> 100 µM

# System: SF-268 CNS
# Assay: NCI-60 cell line screen, 48 h
row,Compound,TGI
1,COc1ccc2c(=O)oc3c(OC)cc(CCN(C)C)c4c(=O)oc1c2c34,28.4 µM and 16.6 µM
2,COc1ccc(/C=C\c2cc(OC)c(OC)c(OC)c2)cc1OCC(=O)O,> 100 µM
3,O=C1C/C(Br)=C\c2ccccc2-c2ccccc21,8.39 µM
4,CCCCCCCCCCCC[N+]12CC[N+](CCN)(CC1)CC2,> 100 µM
5,O=C1C=C(Nc2ccc(Cl)cc2C(=O)c2ccccc2)c2ccccc2C1=O,> 100 µM
6,O=C1C=C(c2c(O)ccc3ccccc23)c2cc(O)ccc2C1=O,32.6 µM
7,Cc1cc(C)nc(NS(=O)(=O)c2ccc(Nc3c4ccccc4nc4c(C(=O)N5CCN(CCO)CC5)cccc34)cc2)n1,> 100 µM
8,COc1ccc(NC(=O)CSc2nnc(-c3ccc(NC(C)=O)cc3)o2)cc1,34.8 µM
9,CC12c3ccccc3C(OC=O)(c3ccccc31)C1(C)c3ccccc3C2(OC=O)c2ccccc21,> 100 µM

# System: DLD-1 colon
# Assay: NCI-60 cell line screen, 48 h
row,Compound,TGI
1,COc1ccc2c(=O)oc3c(OC)cc(CCN(C)C)c4c(=O)oc1c2c34,39.4 µM
2,COc1ccc(/C=C\c2cc(OC)c(OC)c(OC)c2)cc1OCC(=O)O,> 90.2 µM
3,O=C1C/C(Br)=C\c2ccccc2-c2ccccc21,2.92 µM
4,CCCCCCCCCCCC[N+]12CC[N+](CCN)(CC1)CC2,> 100 µM
5,O=C1C=C(Nc2ccc(Cl)cc2C(=O)c2ccccc2)c2ccccc2C1=O,> 100 µM
6,O=C1C=C(c2c(O)ccc3ccccc23)c2cc(O)ccc2C1=O,37.6 µM
7,Cc1cc(C)nc(NS(=O)(=O)c2ccc(Nc3c4ccccc4nc4c(C(=O)N5CCN(CCO)CC5)cccc34)cc2)n1,> 100 µM
8,COc1ccc(NC(=O)CSc2nnc(-c3ccc(NC(C)=O)cc3)o2)cc1,41 µM
9,CC12c3ccccc3C(OC=O)(c3ccccc31)C1(C)c3ccccc3C2(OC=O)c2ccccc21,> 100 µM

# System: MDA-MB-231 breast
# Assay: NCI-60 cell line screen, 48 h
row,Compound,TGI
1,COc1ccc2c(=O)oc3c(OC)cc(CCN(C)C)c4c(=O)oc1c2c34,16.1 µM
2,COc1ccc(/C=C\c2cc(OC)c(OC)c(OC)c2)cc1OCC(=O)O,> 92.7 µM

# System: MDA-MB-435
# Assay: NCI-60 cell line screen, 48 h
row,Compound,TGI
1,COc1ccc2c(=O)oc3c(OC)cc(CCN(C)C)c4c(=O)oc1c2c34,16.1 µM
2,COc1ccc(/C=C\c2cc(OC)c(OC)c(OC)c2)cc1OCC(=O)O,3.27 µM

# System: DMS 273 small cell lung
# Assay: NCI-60 cell line screen, 48 h
row,Compound,TGI
1,COc1ccc2c(=O)oc3c(OC)cc(CCN(C)C)c4c(=O)oc1c2c34,31.5 µM
2,COc1ccc(/C=C\c2cc(OC)c(OC)c(OC)c2)cc1OCC(=O)O,75.1 µM
3,O=C1C/C(Br)=C\c2ccccc2-c2ccccc21,7.65 µM
4,CCCCCCCCCCCC[N+]12CC[N+](CCN)(CC1)CC2,31.9 µM
5,O=C1C=C(Nc2ccc(Cl)cc2C(=O)c2ccccc2)c2ccccc2C1=O,> 100 µM
6,O=C1C=C(c2c(O)ccc3ccccc23)c2cc(O)ccc2C1=O,30.8 µM
7,Cc1cc(C)nc(NS(=O)(=O)c2ccc(Nc3c4ccccc4nc4c(C(=O)N5CCN(CCO)CC5)cccc34)cc2)n1,> 100 µM
8,COc1ccc(NC(=O)CSc2nnc(-c3ccc(NC(C)=O)cc3)o2)cc1,33.7 µM
9,CC12c3ccccc3C(OC=O)(c3ccccc31)C1(C)c3ccccc3C2(OC=O)c2ccccc21,> 100 µM

# System: LXFL 529 NSCLC
# Assay: NCI-60 cell line screen, 48 h
row,Compound,TGI
1,COc1ccc2c(=O)oc3c(OC)cc(CCN(C)C)c4c(=O)oc1c2c34,26 µM
2,COc1ccc(/C=C\c2cc(OC)c(OC)c(OC)c2)cc1OCC(=O)O,> 100 µM
3,O=C1C/C(Br)=C\c2ccccc2-c2ccccc21,3.5 µM
4,CCCCCCCCCCCC[N+]12CC[N+](CCN)(CC1)CC2,> 100 µM
5,O=C1C=C(Nc2ccc(Cl)cc2C(=O)c2ccccc2)c2ccccc2C1=O,> 100 µM
6,O=C1C=C(c2c(O)ccc3ccccc23)c2cc(O)ccc2C1=O,19.5 µM
7,Cc1cc(C)nc(NS(=O)(=O)c2ccc(Nc3c4ccccc4nc4c(C(=O)N5CCN(CCO)CC5)cccc34)cc2)n1,> 100 µM
8,COc1ccc(NC(=O)CSc2nnc(-c3ccc(NC(C)=O)cc3)o2)cc1,26.7 µM
9,CC12c3ccccc3C(OC=O)(c3ccccc31)C1(C)c3ccccc3C2(OC=O)c2ccccc21,> 100 µM

# System: HOP-18 NSCLC
# Assay: NCI-60 cell line screen, 48 h
row,Compound,TGI
1,COc1ccc2c(=O)oc3c(OC)cc(CCN(C)C)c4c(=O)oc1c2c34,27.6 µM
2,COc1ccc(/C=C\c2cc(OC)c(OC)c(OC)c2)cc1OCC(=O)O,> 100 µM
3,O=C1C/C(Br)=C\c2ccccc2-c2ccccc21,16.8 µM
4,CCCCCCCCCCCC[N+]12CC[N+](CCN)(CC1)CC2,> 100 µM
5,O=C1C=C(Nc2ccc(Cl)cc2C(=O)c2ccccc2)c2ccccc2C1=O,> 100 µM
6,O=C1C=C(c2c(O)ccc3ccccc23)c2cc(O)ccc2C1=O,43.8 µM
7,Cc1cc(C)nc(NS(=O)(=O)c2ccc(Nc3c4ccccc4nc4c(C(=O)N5CCN(CCO)CC5)cccc34)cc2)n1,> 100 µM
8,COc1ccc(NC(=O)CSc2nnc(-c3ccc(NC(C)=O)cc3)o2)cc1,34.9 µM
9,CC12c3ccccc3C(OC=O)(c3ccccc31)C1(C)c3ccccc3C2(OC=O)c2ccccc21,> 100 µM
